Results: ChEMBL document CHEMBL1151134, “Anti-AIDS agents, 1. Isolation and characterization of four new tetragalloylquinic acids as a new class of HIV reverse transcriptase inhibitors from tannic acid” (J Nat Prod, 1989)

Key:
[1] = system: Human immunodeficiency virus 1; test: Antiviral activity against HIV1 3B replication in human H9 cells at 1.25 uM after 3 days by p24 antigen capture assay relative to control; format: functional; settings: Human immunodeficiency virus 1, 3B, H9, 72 h
[2] = Cytotoxicity against human H9 cells at 25 uM; format: cell-based; settings: read-out: INH
H9 [3] = test: Cytotoxicity against human H9 cells at 1.25 uM; format: cell-based; settings: h9, 1.25 µM
[4] = system: Human immunodeficiency virus; test: Inhibition of HIV reverse transcriptase assessed as incorporation of [3H]dTMP at 30 uM
[5] = system: Human immunodeficiency virus; test: Inhibition of HIV reverse transcriptase assessed as incorporation of [3H]dTMP at 10 uM
H9 [6] = test: Cytotoxicity against human H9 cells at 6.25 uM; format: cell-based; settings: h9, 6.25 µM
[7] = system: Human immunodeficiency virus 1; test: Antiviral activity against HIV1 3B replication in human H9 cells at 6.25 uM after 3 days by p24 antigen capture assay relative to control; format: functional; settings: Human immunodeficiency virus 1, 3B, H9, 72 h
[8] = system: Human immunodeficiency virus 1; test: Antiviral activity against HIV1 3B replication in human H9 cells at 25 uM after 3 days by p24 antigen capture assay relative to control; format: functional; settings: Human immunodeficiency virus 1, 3B, H9, 72 h
[9] = system: Human immunodeficiency virus; test: Inhibition of HIV reverse transcriptase assessed as incorporation of [3H]dTMP at 100 uM
[10] = system: Human immunodeficiency virus; test: Inhibition of HIV reverse transcriptase assessed as incorporation of [3H]dTMP at 100 nM
[11] = system: Human immunodeficiency virus; test: Inhibition of HIV reverse transcriptase assessed as incorporation of [3H]dTMP at 100 ug/ml
[12] = system: Human immunodeficiency virus 1; test: Antiviral activity against HIV1 3B replication in human H9 cells at 1.5 uM after 3 days by p24 antigen capture assay relative to control; format: functional; settings: Human immunodeficiency virus 1, 3B, H9, 72 h
[13] = system: Human immunodeficiency virus 1; test: Antiviral activity against HIV1 3B replication in human H9 cells at 7.7 uM after 3 days by p24 antigen capture assay relative to control; format: functional; settings: Human immunodeficiency virus 1, 3B, H9, 72 h
[14] = system: Human immunodeficiency virus 1; test: Antiviral activity against HIV1 3B replication in human H9 cells at 30.8 uM after 3 days by p24 antigen capture assay relative to control; format: functional; settings: Human immunodeficiency virus 1, 3B, H9, 72 h
[15] = target: DNA polymerase beta (Homo sapiens) (UniProt P06746); test: Inhibition of human DNA polymerase beta
[16] = system: Human immunodeficiency virus; test: Inhibition of HIV reverse transcriptase
[17] = target: T1, DNA polymerase subunit gamma-1 (Homo sapiens) (UniProt P54098); test: Inhibition of human DNA polymerase gamma
T1 sequence (whole entry): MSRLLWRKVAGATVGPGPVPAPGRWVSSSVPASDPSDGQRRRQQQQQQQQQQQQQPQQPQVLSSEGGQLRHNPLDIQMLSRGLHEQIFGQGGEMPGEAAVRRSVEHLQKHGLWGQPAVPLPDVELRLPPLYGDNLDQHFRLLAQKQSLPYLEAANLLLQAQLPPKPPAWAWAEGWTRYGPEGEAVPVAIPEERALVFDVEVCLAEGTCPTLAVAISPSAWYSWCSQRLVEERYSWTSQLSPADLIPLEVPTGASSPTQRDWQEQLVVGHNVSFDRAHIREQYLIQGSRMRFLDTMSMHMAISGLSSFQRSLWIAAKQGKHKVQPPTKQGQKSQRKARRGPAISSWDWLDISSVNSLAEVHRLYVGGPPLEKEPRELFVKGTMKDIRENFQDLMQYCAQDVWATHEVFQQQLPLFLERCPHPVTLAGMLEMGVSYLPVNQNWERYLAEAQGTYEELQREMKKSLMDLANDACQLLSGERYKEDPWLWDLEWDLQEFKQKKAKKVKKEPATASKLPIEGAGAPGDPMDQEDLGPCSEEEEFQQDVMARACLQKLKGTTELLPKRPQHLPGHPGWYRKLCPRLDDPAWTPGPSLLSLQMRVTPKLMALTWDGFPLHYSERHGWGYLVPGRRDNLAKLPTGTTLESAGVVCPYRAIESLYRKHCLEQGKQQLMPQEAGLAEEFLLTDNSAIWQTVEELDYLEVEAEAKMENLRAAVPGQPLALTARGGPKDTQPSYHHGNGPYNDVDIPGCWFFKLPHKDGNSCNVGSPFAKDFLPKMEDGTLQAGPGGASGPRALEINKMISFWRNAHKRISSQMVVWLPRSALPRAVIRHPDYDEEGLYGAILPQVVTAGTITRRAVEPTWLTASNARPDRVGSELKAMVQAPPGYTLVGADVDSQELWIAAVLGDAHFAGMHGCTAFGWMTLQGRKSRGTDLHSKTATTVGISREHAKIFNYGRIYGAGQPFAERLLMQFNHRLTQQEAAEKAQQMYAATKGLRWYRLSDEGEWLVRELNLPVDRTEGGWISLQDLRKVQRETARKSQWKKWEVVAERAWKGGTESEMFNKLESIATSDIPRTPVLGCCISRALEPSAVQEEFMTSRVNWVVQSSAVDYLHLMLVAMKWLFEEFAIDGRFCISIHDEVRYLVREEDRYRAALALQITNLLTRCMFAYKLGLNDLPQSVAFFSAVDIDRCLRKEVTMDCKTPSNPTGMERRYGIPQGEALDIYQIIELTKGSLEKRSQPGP

[18] = target: T2, DNA polymerase alpha catalytic subunit (Homo sapiens) (UniProt P09884); test: Inhibition of human DNA polymerase alpha
T2 sequence (whole entry): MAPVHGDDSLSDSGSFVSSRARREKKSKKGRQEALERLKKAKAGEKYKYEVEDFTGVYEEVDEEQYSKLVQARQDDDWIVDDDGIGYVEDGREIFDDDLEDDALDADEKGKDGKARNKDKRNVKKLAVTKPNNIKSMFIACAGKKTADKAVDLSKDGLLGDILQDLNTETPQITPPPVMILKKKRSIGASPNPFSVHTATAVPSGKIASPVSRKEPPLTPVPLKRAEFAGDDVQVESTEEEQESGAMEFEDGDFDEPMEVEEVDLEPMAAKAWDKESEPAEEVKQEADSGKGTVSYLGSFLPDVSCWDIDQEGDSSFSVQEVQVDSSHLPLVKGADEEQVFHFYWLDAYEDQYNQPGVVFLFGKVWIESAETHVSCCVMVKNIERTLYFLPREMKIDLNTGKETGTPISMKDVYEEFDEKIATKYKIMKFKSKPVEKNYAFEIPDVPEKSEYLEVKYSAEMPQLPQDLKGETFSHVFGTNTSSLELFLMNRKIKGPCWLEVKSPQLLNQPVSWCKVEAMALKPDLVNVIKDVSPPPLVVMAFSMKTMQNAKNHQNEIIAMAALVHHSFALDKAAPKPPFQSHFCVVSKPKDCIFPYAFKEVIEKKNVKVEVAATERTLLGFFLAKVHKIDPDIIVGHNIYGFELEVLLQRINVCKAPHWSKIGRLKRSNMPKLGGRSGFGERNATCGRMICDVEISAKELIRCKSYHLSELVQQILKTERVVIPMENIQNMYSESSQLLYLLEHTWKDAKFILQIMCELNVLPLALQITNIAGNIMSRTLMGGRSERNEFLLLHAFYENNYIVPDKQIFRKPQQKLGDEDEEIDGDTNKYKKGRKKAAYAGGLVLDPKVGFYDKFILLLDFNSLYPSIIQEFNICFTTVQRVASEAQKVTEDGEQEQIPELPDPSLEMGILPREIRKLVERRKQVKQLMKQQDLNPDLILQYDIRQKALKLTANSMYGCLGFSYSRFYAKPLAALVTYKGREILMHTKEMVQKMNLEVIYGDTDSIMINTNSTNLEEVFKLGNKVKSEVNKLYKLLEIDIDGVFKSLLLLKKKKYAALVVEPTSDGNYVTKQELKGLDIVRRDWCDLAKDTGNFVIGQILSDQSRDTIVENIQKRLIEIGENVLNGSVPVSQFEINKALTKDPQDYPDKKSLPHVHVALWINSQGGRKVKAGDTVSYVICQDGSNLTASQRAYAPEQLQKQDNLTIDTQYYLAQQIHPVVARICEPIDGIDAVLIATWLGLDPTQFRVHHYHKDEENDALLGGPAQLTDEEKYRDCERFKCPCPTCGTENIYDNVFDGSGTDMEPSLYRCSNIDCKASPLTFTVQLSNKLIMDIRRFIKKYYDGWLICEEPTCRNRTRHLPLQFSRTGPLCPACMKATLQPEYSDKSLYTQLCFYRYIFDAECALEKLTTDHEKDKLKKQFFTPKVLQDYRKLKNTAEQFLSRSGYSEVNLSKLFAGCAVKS

[19] = system: Human immunodeficiency virus; test: Inhibition of HIV reverse transcriptase assessed as incorporation of [3H]dTMP at 0.6 uM

| SMILES | inhibition [4] [%] | inhibition [5] [%] | inhibition [9] [%] | inhibition at 1.25 µM [1] [%] | cytotoxicity at 25 µM [2] [%] | Activity (H9 [3]) | Activity (H9 [6]) | inhibition at 6.25 µM [7] [%] | inhibition at 25 µM [8] [%] | further results |
| --- | --- | --- | --- | --- | --- | --- | --- | --- | --- | --- |
| Cc1cn([C@H]2C[C@H](N=[N+]=[N-])[C@@H](COP(=O)(O)OP(=O)(O)OP(=O)(O)O)O2)c(=O)[nH]c1=O | – | – | – | – | – | – | – | – | – | inhibition [10]: 64% |
| O=C(OC[C@H]1O[C@@H](OC(=O)c2cc(O)c(O)c(OC(=O)c3cc(O)c(O)c(O)c3)c2)[C@H](OC(=O)c2cc(O)c(O)c(OC(=O)c3cc(O)c(O)c(O)c3)c2)[C@@H](OC(=O)c2cc(O)c(O)c(OC(=O)c3cc(O)c(O)c(O)c3)c2)[C@@H]1OC(=O)c1cc(O)c(O)c(OC(=O)c2cc(O)c(O)c(O)c2)c1)c1cc(O)c(O)c(OC(=O)c2cc(O)c(O)c(O)c2)c1 | – | – | – | – | – | – | – | – | – | inhibition [11]: 74% |
| O=C(O[C@@H]1C[C@](O)(C(=O)O)C[C@@H](OC(=O)c2cc(O)c(O)c(O)c2)[C@H]1OC(=O)c1cc(O)c(O)c(O)c1)c1cc(O)c(O)c(O)c1 | 48 | 39 | 58 | – | 14 | Non-toxic | Non-toxic | – | – | inhibition at 1.5 µM [12]: 26%; inhibition at 7.7 µM [13]: 59%; inhibition at 30.8 µM [14]: 70% |
| O=C(O)P(=O)(O)O | – | – | – | – | – | – | – | – | – | inhibition [19]: 63% |
| O=C(O[C@@H]1C[C@](OC(=O)c2cc(O)c(O)c(O)c2)(C(=O)O)C[C@@H](OC(=O)c2cc(O)c(O)c(O)c2)[C@H]1OC(=O)c1cc(O)c(O)c(O)c1)c1cc(O)c(O)c(O)c1 | 84 | 36 | 94 | 15 | 25 | Non-toxic | Non-toxic | 52 | 66 | – |

Further lines, with some results ahead:

| inhibition [4] [%] | inhibition [5] [%] | inhibition [9] [%] | SMILES | inhibition at 1.25 µM [1] [%] | cytotoxicity at 25 µM [2] [%] | Activity (H9 [3]) | Activity (H9 [6]) | inhibition at 6.25 µM [7] [%] | inhibition at 25 µM [8] [%] | further results |
| --- | --- | --- | --- | --- | --- | --- | --- | --- | --- | --- |
| 73 | 53 | 90 | O=C(Oc1c(O)cc(C(=O)O[C@H]2[C@H](OC(=O)c3cc(O)c(O)c(O)c3)C[C@](O)(C(=O)O)C[C@H]2OC(=O)c2cc(O)c(O)c(O)c2)cc1O)c1cc(O)c(O)c(O)c1 | 34 | 14 | Non-toxic | Non-toxic | 57 | 71 | – |
| 63 | 50 | 84 | O=C(Oc1c(O)cc(C(=O)O[C@@H]2C[C@](O)(C(=O)O)C[C@@H](OC(=O)c3cc(O)c(O)c(O)c3)[C@H]2OC(=O)c2cc(O)c(O)c(O)c2)cc1O)c1cc(O)c(O)c(O)c1 | 13 | 25 | Non-toxic | Non-toxic | 44 | 61 | – |
| 70 | 55 | 89 | O=C(Oc1c(O)cc(C(=O)O[C@@H]2C[C@@](O)(C(=O)O)C[C@@H](OC(=O)c3cc(O)c(O)c(O)c3)[C@@H]2OC(=O)c2cc(O)c(O)c(O)c2)cc1O)c1cc(O)c(O)c(O)c1 | 28 | 0 | Non-toxic | Non-toxic | 50 | 63 | ID50 [15]: 21 µM; ID50 [16]: 29 µM; ID50 [17]: 2.5 µM; ID50 [18]: 0.065 µM |
